In patent publication US10239851B2 (priority 2014, dated 2019):
Read-outs that look alike come from different tables or passages of the source.

Experiments:
mice = conditions: cited from earlier work
[1] = In vitro dissociation of the water soluble taxane derivatives in blood plasma of rat; format: in vitro ADME, SD rats; conditions: 37° C.
Procedure: The obtained water soluble taxane derivatives were formulated as 0.2 mg/ml aqueous solutions. […] After 2 min, 5 min and 10 min of incubation, 0.2 ml of solutions were respectively taken from each of the samples, and added to acetonitrile (0.4 ml) cooled to −20° C. for precipitation of protein.

[2] = Solubility of the water soluble taxane derivatives in physiological saline; format: physicochemical
in vivo [3] = conditions: male, SD, rat, iv, 5 mg/kg
Procedure: (§1) After 5 min of administration, 0.3 ml of venous blood was taken from the retrobulbar venous plexus of the rats, placed in heparinized tubes, and centrifuged at 11,000 rpm for 5 min. Plasma was separated, and the concentrations of the compounds in the plasma were determined by liquid chromatography □-mass spectrometry.

[4] = system: human prostate cancer PC-3; conditions: 14 mg/kg;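 also: human prostate cancer PC-3 cells implanted under the skin of nude mice to form the xenograft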
Text: Test of the inhibitory activity of the water soluble docetaxel derivatives on subcutaneously xenografted tumor of human prostate cancer PC-3 in nude mice: evaluating and comparing the inhibitory activity of the water soluble docetaxel derivatives and docetaxel on subcutaneously xenografted tumor of human prostate cancer PC-3 in nude mice.
Human prostate cancer PC-3 cells were subcutaneously inoculated into nude mice. After the tumor volume reached 100-150 mm^3, the animals were randomly divided into several groups, and administered with the water soluble docetaxel derivatives of the present invention and docetaxel, respectively once on the same day (D0). The tumor volume was measured 2-3 times per week, the animals were weighed and the data were recorded until day 20 (D20) after grouping.
(§2) The tumor volume (V) was calculated according to the equation: V=½×a×b^2, wherein a and b represent the length and the width, respectively.
(§3) T/C (%)=(T−T0)/(C−C0)×100, wherein T and C represent the tumor volume at the end of the experiment; and T0 and C0 represent the tumor volume at the beginning of the experiment.

SD rats = assay: ED50 and LD50 test concerning anesthesia (sequential method) in rats; format: in vivo; conditions: for ED50: Rattus norvegicus, anesthesia (loss of righting reflex); for ED50 / Rat LD50: caudal vein injection
Procedure: (§4) Test samples for the experiment on rabbit were formulated to have corresponding concentrations based on the results from a preliminary test. […] Rats and mice were administered with samples having a fixed concentration of drugs, while the volume of administration altered according to actual situation. The volume of administration to rabbits was 1 mL/kg body weight.
(§5) ED50 and LD50 values concerning anesthesia were determined using a sequential method. Healthy KM mice (male), SD rats (male) and New Zealand White rabbits were used for test. […] For rabbits, the compounds were administered by injection at a constant rate via ear vein for 30 seconds. Before the test, a preliminary test was conducted to determine an approximate dosage (volume of administration) that leads to anesthetization (or death) of animals, which was set as the middle dosage in the formal test. […] The disappearance of righting reflex or death was used as indicators of pharmacological efficacy or toxicity, respectively. The formal test began with the administration of the middle dosage. If animals were anesthetized, a lower dosage was administered; if animals were not anesthetized, a higher dosage was administered, until the cycle was repeated for 3-4 times. LD50 and ED50 were calculated by a sequential method aot425 software. TI was calculated according to the following equation: TI=LD50/ED50.

KM mice = assay: ED50 and LD50 test concerning anesthesia (sequential method) in mice; format: in vivo; conditions: confirmation test; for ED50: Mus musculus, anesthesia (loss of righting reflex); for ED50 / Mouse LD50: caudal vein injection
Procedure: as §4, §5

Kunming mice = assay: Latent period and persistent period of anesthesia in mice; format: in vivo
[5] = LD50 of the carboxylic acid derivative in mice via the caudal vein; conditions: mouse, in vivo, intravenous, solution in physiological saline pH 7.4
Text: In addition, the inventors dissolved the compound of the present invention having the following formula in physiological saline, adjusted the pH of the solution to 7.4, and administered the solution to mice through the caudal vein.

[6] = In vitro dissociation of the water soluble taxane derivatives in blood plasma of rabbit; format: in vitro ADME, New Zealand white rabbits; conditions: 37° C.
Procedure: The obtained water soluble taxane derivatives were formulated as 0.2 mg/ml aqueous solutions. […] After 5 min, 20 min and 60 min of incubation, 0.2 ml of solutions were respectively taken from each of the samples, and added to acetonitrile (0.4 ml) cooled to −20° C. for precipitation of protein.

[7] = rats, 5 mg/kg intravenous, 5 min after administration
Procedure: as §1

[8] = system: human ovarian cancer SK-OV-3
Text: Test of the inhibitory activity of the water soluble paclitaxel derivatives on subcutaneously xenografted tumor of human ovarian cancer SK-OV-3 in nude mice: evaluating and comparing the inhibitory activity of the water soluble paclitaxel derivatives of the present invention, paclitaxel and Abraxane® on subcutaneously xenografted tumor of human ovarian cancer SK-OV-3 in nude mice.
Human ovarian cancer SK-OV-3 cells were subcutaneously inoculated to nude mice. After the tumor volume reached 100-150 mm^3, the animals were randomly divided into groups (D0), and administered with the water soluble paclitaxel derivatives of the present invention, paclitaxel, and Abraxane®, respectively once per day for 5 days. The tumor volume was measured 2-3 times per week, the animals were weighed and the data were recorded until day 22 (D22) after grouping.
as §2, §3

in vivo [9] = conditions: male, SD, rat, iv, 5 mg/kg; remark: listed apart in the source
Procedure: (§6) After 5 min of administration, 0.3 ml of venous blood was taken from the retrobulbar venous plexus of the rats, placed in heparinized tubes, and centrifuged at 11,000 rpm for 5 min. Blood plasma was separated, and the concentrations of the compounds in the blood plasma were determined by liquid chromatography-mass spectrometry.

[10] = rats, 5 mg/kg intravenous, 5 min after administration; remark: listed apart in the source
Procedure: as §6

[11] = dosage 1.25 * ED50 (propofol 15 mg/kg, fospropofol 85 mg/kg)
[12] = fospropofol 136 mg/kg (2 * ED50)
[13] = PC-3 xenograft, nude mice, D0 IV, single dose, D20
[14] = intravenous injection, dosage 2 * ED50, 3 mg/ml solution
[15] = propofol 25 mg/kg (2 * ED50), results from the present lab
[16] = D22, 24 mg/kg (paclitaxel 16 mg/kg) D0-4 IV

SMILES: CC(C)c1cccc(C(C)C)c1OCOP(=O)(O)O [Fospropofol]
- Latent Period (mice; [11]): 105 s
- Latent Period (mice; [12]): 81 s
- Persistent period (mice; [12]): 804 s

SMILES: CC(=O)O[C@H]1C(=O)[C@@]2(C)[C@H]([C@H](OC(=O)c3ccccc3)[C@]3(O)C[C@H](OC(=O)[C@H](OC(=O)C(F)(CCCCCCN(C)C4CCCC4)C(F)(F)F)[C@@H](NC(=O)c4ccccc4)c4ccccc4)C(C)=C1C3(C)C)[C@]1(OC(C)=O)CO[C@@H]1C[C@@H]2O.CS(=O)(=O)O (stereo partly drawn) [Compound 15, 2′-O-[8-(N-methyl-N-cyclopentyl)amino-2(R,S)-2-trifluoromethyl-2-fluorooctanoyl]paclitaxel methanesulfonate]
- dissociation percent ([1]; 2 min): 35.0%
- dissociation percent ([1]; 5 min): 46.2%
- dissociation percent ([1]; 10 min): 57.9%
- Solubility [2]: 15.0 mg/mL

SMILES: CC(=O)O[C@@]12CO[C@@H]1C[C@H](O)[C@@]1(C)C(=O)[C@H](O)C3=C(C)[C@@H](OC(=O)[C@H](O)[C@@H](NC(=O)OC(C)(C)C)c4ccccc4)C[C@@](O)([C@@H](OC(=O)c4ccccc4)[C@H]21)C3(C)C [docetaxel, reference compound]
- concentration at 5 min (in vivo [3]): 769 ng/mL
- Tumor volume (mm^3) (D0) ([4]; PC-3 xenograft, nude mice, D0 IV, single dose, D0 (baseline at grouping)): 111.5 ± 1.3 mm^3
- T/C (%) D20 [4, 13]: −27%
- Tumor volume (mm^3) (D20) [4, 13]: 81.4 ± 25.1 mm^3
- Tumor inhibitory percent (%) D20 ([4]; PC-3 xenograft, nude mice, D0 IV, single dose, D20, P(D20)=0.000 vs control): 127%
- Weight change (%) D6 ([4]; mouse, in vivo, iv): −12.3%

SMILES: CC(C)c1cccc(C(C)C)c1O [Propofol, reference compound]
- Latent Period (mice; [11]): 10.7 s
- TI Rat (SD rats; 3 mg/ml solution): 5.5
- TI Rat (SD rats; 6 mg/ml solution): 4.9
- ED50 (SD rats; 3 mg/ml solution): 3.91 mg/kg
- ED50 (SD rats; 6 mg/ml solution): 3.5 mg/kg
- Rat LD50 (SD rats; 3 mg/ml solution): 21.5 mg/kg
- Rat LD50 (SD rats; 6 mg/ml solution): 17.4 mg/kg
- TI Mouse (KM mice; 3 mg/ml solution): 4.9
- TI Mouse (KM mice; 6 mg/ml solution): 3.8
- ED50 (KM mice; 3 mg/ml solution): 7.9 mg/kg
- ED50 (KM mice; 6 mg/ml solution): 11.3 mg/kg
- Mouse LD50 (KM mice; 3 mg/ml solution): 38.4 mg/kg
- Mouse LD50 (KM mice; 6 mg/ml solution): 42.9 mg/kg
- Latent Period (Kunming mice; [14]): 8.4 ± 1.1 s
- Persistent period (Kunming mice; [14]): 324.8 ± 98.9 s
- Latent Period (Kunming mice; [15]): 8.4 ± 1.1 s
- Persistent period (Kunming mice; [15]): 324.8 ± 98.9 s

SMILES: CN(C)CC[C@@H](F)C(=O)O.Cl
- LD50 [5]: > 1500 mg/kg

SMILES: CC(=O)O[C@@]12CO[C@@H]1C[C@H](O)[C@@]1(C)C(=O)[C@H](O)C3=C(C)[C@@H](OC(=O)[C@H](OC(=O)C(F)(F)CCCCCN4CC4)[C@@H](NC(=O)OC(C)(C)C)c4ccccc4)C[C@@](O)([C@@H](OC(=O)c4ccccc4)[C@H]21)C3(C)C.CS(=O)(=O)O [Compound 14, 2′-O-[7-N-(aziridin-1-yl)-2,2-difluoroheptanoyl]docetaxel methanesulfonate]
- dissociation percent ([1]; 2 min): 42.1%
- dissociation percent ([1]; 5 min): 55.7%
- dissociation percent ([1]; 10 min): 72.5%
- Solubility [2]: 14.3 mg/mL

SMILES: CC(=O)O[C@@]12CO[C@@H]1C[C@H](O)[C@@]1(C)C(=O)[C@H](O)C3=C(C)[C@@H](OC(=O)[C@H](OC(=O)C(F)CCN(C)C)[C@@H](NC(=O)OC(C)(C)C)c4ccccc4)C[C@@](O)([C@@H](OC(=O)c4ccccc4)[C@H]21)C3(C)C.Cl (stereo partly drawn) [Compound 06, 2′-O-[4-(N,N-dimethyl)amino-2(R,S)-fluorobutyryl]docetaxel hydrochloride]
- dissociation percent ([1]; 2 min): 56.4%
- dissociation percent ([1]; 5 min): 91.1%
- dissociation percent ([1]; 10 min): 100%
- dissociation percent ([6]; 5 min): 75.6%
- dissociation percent ([6]; 20 min): 98.6%
- dissociation percent ([6]; 60 min): 100%
- detection of the administered derivative in the blood plasma [7]: cannot be detected

SMILES: CC(=O)O[C@H]1C(=O)[C@@]2(C)[C@H]([C@H](OC(=O)c3ccccc3)[C@]3(O)C[C@H](OC(=O)[C@H](O)[C@@H](NC(=O)c4ccccc4)c4ccccc4)C(C)=C1C3(C)C)[C@]1(OC(C)=O)CO[C@@H]1C[C@@H]2O [paclitaxel, reference compound]
- Tumor volume (D0) ([8]; D0, at grouping, 24 mg/kg (paclitaxel 16 mg/kg) D0-4 IV): 134.6 ± 19.7 mm^3
- T/C (%) D22 [8, 16]: −60%
- Tumor volume (D22) [8, 16]: 53.7 ± 11.2 mm^3
- Tumor inhibitory percent (%) D22 ([8]; D22, 24 mg/kg (paclitaxel 16 mg/kg) D0-4 IV, P=0.000 compared to the control): 160%
- Weight change (%) D4 ([8]; mouse, in vivo): −4.8%
- concentration at 5 min (in vivo [9]): 1790 ng/mL

SMILES: CC(=O)O[C@H]1C(=O)[C@@]2(C)[C@H]([C@H](OC(=O)c3ccccc3)[C@]3(O)C[C@H](OC(=O)[C@H](OC(=O)[C@@H](F)CCN(C)C)[C@@H](NC(=O)c4ccccc4)c4ccccc4)C(C)=C1C3(C)C)[C@]1(OC(C)=O)CO[C@@H]1C[C@@H]2O.Cl [Compound 02, 2′-O-[4-(N,N-dimethyl)amino-2(S)-fluorobutyryl]paclitaxel hydrochloride]
- detection of the administered derivative in the blood plasma [10]: cannot be detected
- dissociation percent ([1]; 2 min): 59.8%
- dissociation percent ([1]; 5 min): 95.6%
- dissociation percent ([1]; 10 min): 100%
- dissociation percent ([6]; 5 min): 68.2%
- dissociation percent ([6]; 20 min): 97.5%
- dissociation percent ([6]; 60 min): 100%

SMILES: CC(=O)O[C@H]1C(=O)[C@@]2(C)[C@H]([C@H](OC(=O)c3ccccc3)[C@]3(O)C[C@H](OC(=O)[C@H](OC(=O)[C@H](F)CCN(C)C)[C@@H](NC(=O)c4ccccc4)c4ccccc4)C(C)=C1C3(C)C)[C@]1(OC(C)=O)CO[C@@H]1C[C@@H]2O.Cl [Compound 01, 2′-O-[4-(N,N-dimethyl)amino-2(R)-fluorobutyryl]paclitaxel Hydrochloride]
- detection of the administered derivative in the blood plasma [10]: cannot be detected
- mean concentration of paclitaxel in the blood plasma [10]: 1789 ng/mL
- dissociation percent ([1]; 2 min): 63.5%
- dissociation percent ([1]; 5 min): 96.8%
- dissociation percent ([1]; 10 min): 100%
- dissociation percent ([6]; 5 min): 76.5%
- dissociation percent ([6]; 20 min): 98.3%
- dissociation percent ([6]; 60 min): 100%

SMILES: CC(=O)O[C@H]1C(=O)[C@@]2(C)[C@H]([C@H](OC(=O)c3ccccc3)[C@]3(O)C[C@H](OC(=O)[C@H](OC(=O)C(F)CCN(C)C)[C@@H](NC(=O)c4ccccc4)c4ccccc4)C(C)=C1C3(C)C)[C@]1(OC(C)=O)CO[C@@H]1C[C@@H]2O.Cl (stereo partly drawn) [Compound 03, 2′-O-[4-(N,N-dimethyl)amino-2(R,S)-fluorobutyryl]paclitaxel Hydrochloride]
- detection of the administered derivative in the blood plasma [10]: cannot be detected
- dissociation percent ([1]; 2 min): 61.8%
- dissociation percent ([1]; 5 min): 93.1%
- dissociation percent ([1]; 10 min): 100%
- dissociation percent ([6]; 5 min): 75.7%
- dissociation percent ([6]; 20 min): 93.5%
- dissociation percent ([6]; 60 min): 100%

SMILES: CC(=O)OC12COC1CC(O)C1(C)C(=O)C(O)C3=C(C)C(OC(=O)C(OC(=O)C(F)CCN(C)C)C(NC(=O)OC(C)(C)C)c4ccccc4)CC(O)(C(OC(=O)c4ccccc4)C21)C3(C)C.Cl [Compound 04, 2′-O-[4-(N,N-dimethyl)amino-2(R)-fluorobutyryl]docetaxel Hydrochloride]
- dissociation percent ([1]; 2 min): 58.6%
- dissociation percent ([1]; 5 min): 92.6%
- dissociation percent ([1]; 10 min): 100%
- dissociation percent ([6]; 5 min): 80.2%
- dissociation percent ([6]; 20 min): 93.5%
- dissociation percent ([6]; 60 min): 100%
- detection of the administered derivative in the blood plasma [7]: cannot be detected

SMILES: CC(=O)O[C@@]12CO[C@@H]1C[C@H](O)[C@@]1(C)C(=O)[C@H](O)C3=C(C)[C@@H](OC(=O)[C@H](OC(=O)[C@@H](F)CCN(C)C)[C@@H](NC(=O)OC(C)(C)C)c4ccccc4)C[C@@](O)([C@@H](OC(=O)c4ccccc4)[C@H]21)C3(C)C.Cl [Compound 05, 2′-O-[4-(N,N-dimethyl)amino-2(S)-fluorobutyryl]docetaxel hydrochloride]
- dissociation percent ([1]; 2 min): 56.4%
- dissociation percent ([1]; 5 min): 91.1%
- dissociation percent ([1]; 10 min): 100%
- dissociation percent ([6]; 5 min): 79.3%
- dissociation percent ([6]; 20 min): 91.8%
- dissociation percent ([6]; 60 min): 100%
- detection of the administered derivative in the blood plasma [7]: cannot be detected
